Laboratory results from ChEMBL document CHEMBL1154446, “Synthesis and preliminary biological evaluation of new carbon-11 labeled tetrahydroisoquinoline derivatives as SERM radioligands for PET imaging of ER expression in breast cancer” (Eur J Med Chem, 2008).
Active and inactive are the calls of the source. No cut-off for these calls is given here.

Key:
Type in all cases: functional, cell-based
[1] = test system: MCF7; assay: Antiproliferative activity against human MCF7 cells at >0.625 to 10 nM after 24 hrs by MTS assay
[2] = test system: MCF7; assay: Antiproliferative activity against human MCF7 cells at 0.3125 to 0.625 nM after 24 hrs by MTS assay
[3] = test system: MCF7; assay: Antiproliferative activity against human MCF7 cells at 0.625 nM after 24 hrs by MTS assay

Row | Compound | Activity [1] | Activity [2] | Activity [3]
1 | COC(=O)C1CCN(CCOc2ccc(C3(C)c4ccc(O)cc4CCN3c3ccc(Cl)cc3)cc2)CC1 (stereo unspecified) | Active | Active | 
2 | COC(=O)C1CCN(CCOc2ccc(C3(C)c4ccc(O)cc4CCN3c3ccc(F)cc3)cc2)CC1 (stereo unspecified) | Active |  | inactive
3 | CCC(=C(c1ccc(O)cc1)c1ccc(OCCN(C)C)cc1)c1ccccc1 | Active |  | Active
